Source: patent US11248023B2 (NEURACLE SCIENCE CO., LTD., priority 2015, dated 2022)
Square brackets hold non-standard residues; d marks the D form. Peptide text beside a SMILES is read from it. PEG = not defined here

What was measured:
[1] = Elevated plus maze (EPM) test; assay type: in vivo, mice; conditions: 4 μg lateral ventricle, 2-3 h after administration, vs DMSO
Method: The effect of the GALR2 agonist dN1-Qu on recovery from anxiety disorder was investigated. In the same manner as in Example 3, a cannula was inserted into the lateral ventricle of mice. 2-3 h after dimethyl sulfoxide (DMSO) as a control or 4 μg of the GALR2 agonist dN1-Qu as an experimental group was administered, the elevated plus maze (EPM) test was conducted to measure anxiety/obsession. The EPM test uses a cross-shaped maze elevated above the floor with closed arms, open arms, and a center and is based on the behavior of mice that prefer to remain in the closed arms. Anxiety is judged to be lower when a larger number of mice remain in the open arms. After mice was placed on the plus maze, the time spent in the open arms (“time in open arm”), the number of mice entering the open arms (“number of open arm entry”), and the total movement (“number of center crossing”) were measured for the first 15 min. The results for the last 10 min were used for analysis.

[2] = Sucrose preference test (SPT); assay type: in vivo, mice; conditions: 2 days
Method: The effect of the GALR2 agonist dN1-Qu on addiction reduction was investigated. In the same manner as in Example 3, a cannula was inserted into the lateral ventricle of mice. After injection of dimethyl sulfoxide (DMSO) and 0.4, 4, and 40 μg of dN1-Qu, the consumptions of water and 1% sucrose solution were measured for 2 days by the sucrose preference test (SPT) for addiction evaluation. According to this test, tap water and sucrose solution were filled in respective bottles and weighed before injection of the agonist. After free access to the fluids for 2 days, the bottles were weighed to compare the total consumption of the fluids and the percentage of the consumed sucrose solution in the total fluid consumption.

[3] = biological target: T1, GALR2 (Homo sapiens, UniProt O43603); experiment: SRE-luc assay in HEK293-Gqi cells expressing GALR2; assay type: cell-based; conditions: GALR2 versus GALR3
T1 construct: expressed in transfected cells
T1 sequence (O43603 1-387): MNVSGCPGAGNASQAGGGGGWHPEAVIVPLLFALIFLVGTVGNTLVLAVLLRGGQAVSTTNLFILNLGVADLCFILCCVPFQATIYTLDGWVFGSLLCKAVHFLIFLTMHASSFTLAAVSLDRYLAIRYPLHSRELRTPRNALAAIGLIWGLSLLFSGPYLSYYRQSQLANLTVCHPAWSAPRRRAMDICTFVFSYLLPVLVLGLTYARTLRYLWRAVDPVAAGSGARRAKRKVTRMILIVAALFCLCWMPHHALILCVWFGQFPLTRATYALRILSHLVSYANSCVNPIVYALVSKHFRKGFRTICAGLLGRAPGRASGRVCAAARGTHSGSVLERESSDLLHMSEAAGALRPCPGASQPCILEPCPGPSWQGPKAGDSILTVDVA
Excerpt: The HEK293-Gqi stable cell line is a cell line in which the C-terminus of Gq is substituted with 3 amino acids of G to convert the signals of G to Gq signaling pathways. […] GALR subtypes 1 and 3 induce inhibitory G-coupled signaling, while GALR subtype 2 triggers stimulatory Gq-coupled signaling. This difference explains the use of the HEK293-Gqi stable cell line in which the C-terminus of Gq is substituted with 3 amino acids of G to convert the signals of Gi to Gq signaling pathways.
GALR subtypes 1 and 3 induce inhibitory G-coupled signaling, while GALR subtype 2 triggers stimulatory Gq-coupled signaling. This difference explains the use of the HEK293-Gqi stable cell line in which the C-terminus of Gq is substituted with 3 amino acids of G to convert the signals of G to Gq signaling pathways. The activities of the receptors were measured using an SRE-luc assay system designed to express luciferase (luc) by serum responsive element (SRE) promoters. Light caused by a reaction between expressed luciferase and luciferin as a substrate was detected using a luminometer so that receptor subtype-specific or ligand-specific cellular activities were observed. One day after HEK293-Gqi cells were seeded in 48-well plates at a density of 2×10^4 cells/well, plasmid DNA and SRE-luc plasmid DNA, which encode GALR2 and GALR3, respectively, were mixed in a ratio of 1:1 (75 ng+75 ng)/well, and treated with Effectene reagent (2 μl/well). After 3 h, media were replaced with DMEM media supplemented with 10% FBS. After 24 h, the DMEM media were replaced with FBS-free DMEM media. After 16 h, each constructed spexin-based mutant peptide was further incubated at 37° C. for 6 h. After this stage was finished, cells were washed with PBS and lysed by the addition of 100 μl of lysis buffer (0.1% triton X-100, 0.2M Tris, pH 8.0) at room temperature for 20 min. The luciferase activity was determined using a synergy 2 Multi-mode microplate reader (BioTek, Winooski, Vt., USA) with automatic injection of a luciferin solution (0.5 M MgCl2, 0.1 M ATP, 0.05 M D-luciferin, 1 M KH2PO4, pH 7.8).

[4] = test system: neurons in the amygdala; experiment: c-fos immunohistochemistry, amygdala and other brain regions; assay type: in vivo, mice; conditions: 0.4, 4, and 40 μg to the ventricle, 1-2 h
Method: Then, the brain was placed in a mold for brain tissue, transferred to and frozen in an isopentane solution kept cold on dry ice with an OCT composite containing 30% sucrose solution, and stored at −80° C. before use. The frozen brain tissue was sliced at 40 μm using a cryostat microtome, followed by immunohistochemistry.

[5] = test system: neurons in the arcuate nucleus; experiment: c-fos immunohistochemistry, arcuate nucleus, after ventricular administration; assay type: in vivo, mice; conditions: 0.4, 4, and 40 μg to the ventricle, 1 h
[6] = Dietary intake and body weight change after intracerebroventricular administration; assay type: in vivo, mice
Method: C57BL/6J black male mice (9 weeks of age) were acquired from Orientbio (www.orient.co.kr). Mice were housed in a cage at 20-24° C. and 40-70% relative humidity under a normal 12:12 light-dark cycle (lights onset at 8:00 am), with food and water available ad libitum. All experiments were designed to minimize the number of animals. Animals were anesthetized to minimize their suffering in accordance with the Guidelines for Ethical Care and Use of Experimental Animals, which were approved by the institutional animal care and use committee of Korea University. For intracerebroventricular injection, mice were anesthetized with sodium pentobarbital (50 mg/kg, i.p.), mounted on a stereotaxic apparatus, and implanted with a 26-gauge stainless steel cannula into the right side of the lateral ventricle. Two jewelry screws were implanted into the skull as anchors, and the whole assembly was affixed to the skull with dental cement. Mice were recovered at least 2 weeks before experimentation. The GALR2 agonist was administered using a Hamilton syringe at a rate of 0.5 μl/min. Dietary intakes and weight changes were determined by measuring the weights of feed and mice before agonist administration, measuring the weights of the feed over 1, 2, 4, 12, and 24 h, and comparing the weight of mice after 24 h with the initial weight.
The effects of the GALR2 agonist on feeding behaviors and changes in body weight were investigated by the following procedure. First, a cannula was inserted into the third ventricle.

[7] = Stability in 100% fetal bovine serum, residual potency via IP3 production in GALR2-expressing cells; conditions: 37° C., 0-72 h, IP3 production in GALR2-expressing cells
Method: The stability of the spexin-based mutant peptides was investigated. To this end, first, each modified mutant peptide at an initial concentration 10 μM was allowed to react in 100% fetal bovine serum (FBS) at 37° C. for 0, 3, 6, 12, 24, 48, and 72 h. Thereafter, the potencies of the mutant peptide toward GALR2 were determined via inositol 1,4,5-triphosphate (IP3) production in GALR2-expressing cells. For the IP3 assay, cells were seeded in 12-well plates at a density of 2.5×10^5 cells/well and then the next day, cells were treated with a mixture of 1 μg of GALR2-encoding plasmid DNA and Lipofectamine 2000 (Invitrogen). On day following treatment, cells were incubated in M199 media containing 1% FBS, 1% L-glutamine, 1% antibiotic, and myo-^3H inositol 1 μCi/well for 20 h to radioactively label inositol phosphate. After this stage was finished, cells were allowed to react in buffer A (140 mM NaCl, 20 mM Hepes, 4 mM KCl, 8 mM D-glucose, 1 mM MgCl2, 1 mM CaCl2), 1 mg/ml free fatty acid bovine serum albumin, and 10 mM LiCl at pH 7.2) for 30 min. After the mutant peptide was allowed to react in 100% FBS, cells were treated with the mutant peptide for 40 min at 37° C. Media was removed, and reactions were terminated by addition of 1 ml of 10 mM cold formic acid to each well. The plates were allowed to stand at 4° C. for 30 min. Then, the resulting extracts were transferred to 6-mL plastic tubes containing 500 μl AG1-8X anion exchange columns. The tubes were gently mixed with a vortexer, and the supernatants were removed from the labeled mixture. Two washes with 1 ml of triple-distilled water were performed followed by two additional washes with 60 mM ammonium formate/5 mM sodium tetraborate. The radioactively labeled mixture was eluted from the column with 1 ml of 1 M ammonium formate/0.1 M formic acid (1 mL), and 800 μl from the elution were taken from each tube and transferred into scintillation vials. Then, 2 ml of scintillation cocktail solution (Ultima Gold™, Perkin Elmer, Waltham Mass., USA) was added to each sample. The radioactivity of the mixture solution of the radioactively labeled mixture and the scintillation cocktail solution was measured using a TRI carb 2100TR liquid scintillation analyzer (Packard).

[8] = Open field test (OFT) in anxiety-induced mice; assay type: in vivo; conditions: vs DMSO
Excerpt: The effect of the GALR2 agonist on anxiety reduction was investigated by the OFT for simultaneously measuring movement and anxiety (FIG. 13). The OFT is based on the behavior of mice that prefer to stay at the periphery rather than at the center of a quadrangular area. After mice were placed at the center of a quadrangular area, the proportion of the time spent in the center (“% time in center”), the proportion of the moving distance in the center (“% distance in center”), and the total moving distance (“total distance”) were measured for 10 min from the time when the animals moved to the periphery. The results were divided into two equal periods (5 min each) for analysis. 2-3 h after 4 μg of DMSO as a control or the GALR2 agonist dN1-Qu was administered to the lateral ventricle of animals, which had previously been evoked by repeated electric shocks to induce anxiety, anxiety and movement were measured.

[9] = test system: neurons in the amygdala and arcuate nucleus; experiment: Neuron activity after nasal inhalation of GALR2 agonist; assay type: in vivo, mice; conditions: 8 μg nasal inhalation, 1-2 h; like intracerebroventricular injection
Method: 1-2 h after nasal inhalation, the results were recorded. The results of nasal inhalation were compared with those of intracerebroventricular injection.

[10] = 3 μg into the third ventricle, 24 h, compared to spexin-administered mice and control
[11] = concentrations of 0.5, 1, and 3

## CC(C)C[C@H](NC(=O)[C@H](C)NC(=O)[C@H](C)NC(=O)[C@H](CC(N)=O)NC(=O)[C@@H]1CCCN1C(=O)[C@@H](NC(=O)[C@H](Cc1c[nH]c2ccccc12)NC(=O)[C@H](N)CC(N)=O)[C@@H](C)O)C(=O)N[C@@H](Cc1ccc(O)cc1)C(=O)N[C@@H](CC(C)C)C(=O)N[C@@H](Cc1ccccc1)C(=O)NCC(=O)N1CCC[C@H]1C(=O)N[C@@H](CCC(N)=O)C(N)=O [dN1-Qu] (H-[dN]WTPNAALYLFGPQ-NH2)
[1]
  number of center crossing: no difference
  number of open arm entry: increased
  time in open arm: increased
[2]
  total consumption of the fluids: no difference
[2]; 1% sucrose solution
  consumption of sucrose: considerably reduced
[2]; 1% sucrose, 0.4, 4, and 40 μg lateral ventricle, control ~70%
  sucrose preference (consumed sucrose solution in total fluid consumption): ≤ 60%
[3]
  specificity for GALR2: specificity for GALR2
[4]
  c-fos expressing neurons in the amygdala: increase in the number of c-fos expressing neurons
  neurons in other emotion-regulating brain regions: not activated
[5]
  c-fos expressing neurons in the arcuate nucleus: increase in the number of c-fos expressing neurons
[6]; [10]
  change in body weight: weight loss was effectively induced
  dietary intake: significantly decreased
[7]
  stability in serum (100% FBS): increased stability
[8]; first 5-min period
  % distance in center: increased
  total distance: no difference
[8]; second 5-min period
  % distance in center: increased

## PEG-NWTdANAALYLFGPdQ-NH2 ({PEG}-NWT[dA]NAALYLFGP[dQ]-NH2; reading uncertain) [PEG-se]
[3]
  specificity for GALR2: specificity for GALR2
[6]; 3 μg following 10 μg of M871
  effect on dietary intake after GALR2 antagonist M871: disappeared
  effect on weight loss after GALR2 antagonist M871: disappeared
[6]; [11]
  dietary intake: dietary intakes and weight losses were observed
  weight loss: dietary intakes and weight losses were observed
[7]
  stability in serum (100% FBS): increased stability
[9]
  activity of neurons in the amygdala and arcuate nucleus: increase the activity of neurons
